Measurements: patent US20250041195A1, “COLLAGEN TYPE III COMPOSITION PREPARED FROM FIBROBLAST EXTRACELLULAR MATRIX” (SINO UNITED (BEIJING) BIOMEDICAL TECHNOLOGY CO., LTD., priority 2022, published 2025)
Where a SMILES comes first, the peptide text is derived from it.

Assays:
human fibroblasts = assay type: cell-based; conditions: 48 h, 200 μg/mL
Procedure: The active polypeptide of the present application with a sequence of EMHKMEPCPMYRRHLG was serially diluted in a 96-well cell culture plate to 5, 10, 25, 50, 100, 200 μg/mL, with 5 duplicated wells per concentration. The above operations were all performed under sterile conditions.
For the passage of the cell lines isolated in Example 1, the cell culture medium was firstly poured out, and the cells were washed twice with 2 mL of PBS. The liquid was discarded, and 1 mL of 0.25% (mass fraction) trypsin solution was added for digestion for 3 min until the cells were completely detached. […] The cell solution was adjusted to a concentration of 5.0×10^5 cells/mL and cultured at 37° C. under 5% carbon dioxide and saturated humidity conditions. After 24 h of passaging, the cells were used for pharmacological activity assay. The above operations were all performed under sterile conditions.
The cells were inoculated into a 96-well cell culture plate, with 100 μL per well, and incubated at 37° C. under 5% carbon dioxide and saturated humidity conditions. […] The absorbance was determined at 570 nm by a microplate reader, with 630 nm as a reference wavelength. The results were recorded and the cell viability was calculated according to the following formula: cell viability=(absorbance A570 of the experimental group/absorbance A570 of the blank control group)×100%.

mice = test: General chronic toxicology study in mice; assay type: in vivo; conditions: duration ≥6 months, ICH S4 guidelines
Text: The Fmoc polypeptide synthesis method is a conventional method used by a person skilled in the art to prepare a polypeptide. In the case that a person skilled in the art knows that the polypeptide to be prepared needs to comprise an amino acid sequence as shown in EMHKMEPCPMYRRHLG, in combination with the existing Fmoc polypeptide synthesis method, the polypeptide to be protected in the present application may be obtained.

CSCC[C@H](NC(=O)[C@H](CCCCN)NC(=O)[C@H](Cc1c[nH]cn1)NC(=O)[C@H](CCSC)NC(=O)[C@@H](N)CCC(=O)O)C(=O)N[C@@H](CCC(=O)O)C(=O)N1CCC[C@H]1C(=O)N[C@@H](CS)C(=O)N1CCC[C@H]1C(=O)N[C@@H](CCSC)C(=O)N[C@@H](Cc1ccc(O)cc1)C(=O)N[C@@H](CCCNC(=N)N)C(=O)N[C@@H](CCCNC(=N)N)C(=O)N[C@@H](Cc1c[nH]cn1)C(=O)N[C@@H](CC(C)C)C(=O)NCC(=O)O [active polypeptide, EMHKMEPCPMYRRHLG] (H-EMHKMEPCPMYRRHLG-OH)
cell viability (human fibroblasts): 265.3%±4.52
toxic side effects in general chronic toxicology study (mice): no significant toxic side effects
